Source: US7423017B2, “Method for treating cartilage disorders” (Genentech, Inc., priority 1997, dated 2008)
“Also recorded” adds a separate entry of the source. Positions of bridges follow the written chain, without caps; N, C: chain ends. Residues, ends and D or L forms follow the SMILES beside them. No end group written: not given here.

Assays:
IGFBP-3 [1] = target: T1, IGFBP-3 (Homo sapiens, UniProt P17936); experiment: BIACORE competition assay: IGFBP-3 binding to immobilized IGF-1; conditions: IGF-1 inhibition; wt = BP3-01-ox
T1 construct: made in house
T1 sequence (P17936 28-291): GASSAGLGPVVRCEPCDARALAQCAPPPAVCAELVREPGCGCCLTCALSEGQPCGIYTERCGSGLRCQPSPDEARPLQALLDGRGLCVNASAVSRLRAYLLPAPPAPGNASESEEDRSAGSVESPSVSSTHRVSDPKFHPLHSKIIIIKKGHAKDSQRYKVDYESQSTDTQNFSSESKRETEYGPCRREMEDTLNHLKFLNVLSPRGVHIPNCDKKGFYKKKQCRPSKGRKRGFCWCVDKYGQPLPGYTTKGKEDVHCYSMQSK

IGFBP-3 [2] = experiment: displacement of 125I-IGF-1 from IGFBPs in human serum, size-exclusion chromatography; type: binding; conditions: peptide at 0.2 mM
Protocol: This Example tests an IGFBP-3-specific peptide, BP3-15, for its ability to block the binding of ^125I-IGF-1 in human serum. Human serum was incubated with ^125I-IGF-1 ± the peptide and the amount of tracer bound to IGFBPs via size-exclusion chromatography was measured.

[3] = test system: human articular cartilage explants; experiment: human articular cartilage explants from diseased joints: matrix synthesis (35S-sulfate uptake); type: cell-based; conditions: IGF-1 40 ng/ml; peptide 0.1 mg/ml
Protocol: (§1) The metacarpophalangeal joint of a six-month old pig was cultured as described above for bovine articular cartilage in Example 8. This explant was cultured in media alone or in media with D12K, D12R, or wild-type IGF-1 (at 10 nM) alone or in the presence of IL-1α at 1 ng/ml, as described above. Human explants were from patients undergoing joint replacement surgery. Articular cartilage was harvested, aliquoted (40-45 mg/tube) and cultured as above. […] Fresh media was added on days 0, 1, 2, and 3. Matrix breakdown was determined by measuring the amount of proteoglycans in the media using the DMMB assay as set forth above. Matrix (proteoglycan) synthesis was determined by measuring ^35S-sulfate uptake as set forth above.
(§2) Human articular cartilage explants were cultured in media or treated with IGF-1 by itself or in combination with either BP3-40 or BP3-15 at 0.1 mg/ml as set forth above. Matrix breakdown was determined by measuring the release of proteoglycans into media as described above. Matrix synthesis was determined by counting the amount of ^35S-sulfate incorporated into the cartilage tissue as described above.
The same Material and Methods (for human tissue) were used as described above, using articular cartilage explants from human joints removed from patients undergoing joint replacement. These explants were cultured with IGF-1 alone at 40 ng/ml, or IGF-1 with BP1-17, BP3-15, or BP1-16 (0.1 mg/ml), or IGF-1 with buffer (HEPES).

[4] = test system: human articular cartilage explants; experiment: human articular cartilage explants: matrix breakdown (proteoglycan release); type: cell-based; conditions: peptide 0.1 mg/ml
Protocol: as §1, §2

IGFBP-1 [5] = experiment: competitive phage ELISA of IGF-1 mutants, IGFBP-1; type: binding, human; conditions: relative IC50 IGFBP-1/relative IC50 IGFBP-3
Method in brief: (§3)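 Alanine-scan IGF-1 mutants on phage competed with soluble IGFBP-1 or IGFBP-3 (threefold dilutions over six logs, from 5 μM and 500 nM respectively) for binding to plates coated with 1 μg/ml of the same protein in PBS pH 7.2. Incubation was 1 h at room temperature in 0.5% Tween 20/PBS. Bound phage was detected by anti-phage/HRP ELISA; IC50 is the mean±SD of at least two clones.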

IGFBP-3 [6] = target: T1, IGFBP-3; experiment: competitive phage ELISA of IGF-1 mutants, IGFBP-3; type: binding; conditions: phage display, soluble IGFBP-3 competitor
Method in brief: as §3

IGFBP-1 [7] = target: T2, IGFBP-1 (Homo sapiens, UniProt P08833); experiment: competitive phage ELISA of IGF-1 mutants, IGFBP-1; type: binding; parameters: made in house; host or cells: CHO cells; conditions: phage display, soluble IGFBP-1 competitor
T2 sequence (P08833 26-259): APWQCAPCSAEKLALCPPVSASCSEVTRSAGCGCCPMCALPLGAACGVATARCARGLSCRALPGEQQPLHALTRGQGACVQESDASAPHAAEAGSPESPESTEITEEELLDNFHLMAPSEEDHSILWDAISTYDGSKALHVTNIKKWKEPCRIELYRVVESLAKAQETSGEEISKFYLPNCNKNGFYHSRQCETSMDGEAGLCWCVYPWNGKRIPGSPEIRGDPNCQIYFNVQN
Method in brief: as §3

IGFBP-1 [8] = target: T2, IGFBP-1; conditions: cited from earlier work
IGFBP-1 [9] = target: T2, IGFBP-1; experiment: biotinylated-IGFBP-1 ELISA plate assay of IGF-I:IGFBP-1 inhibition; type: binding; parameters: made in house; host or cells: CHO cells
From the text: A second series of peptides made use of non-natural amino acids to probe whether other structural features such as an added methyl group at the alpha carbon, or an isomer (D-alanine) could affect peptide binding to IGFBP-1.
BP1-16 (SEQ ID NO:35), a 13-residue version of BP1-01 (lacking the C-terminal Gly), had similar affinity to that of BP1-01. Substitutions at the N-terminus or C-terminus yielded affinity improvements.

IGFBP-1 [10] = target: T2, IGFBP-1; experiment: KIRA cell-based assay of IGF-like activity displaced by peptides from IGF-1/IGFBP-1; conditions: 2 nM IGF-1, […] IGFBP-1
Protocol: A cell-based (KIRA) assay was previously described for measuring the amount of IGF-like activity displaced by peptides from mixtures of IGF-1 and binding proteins (Lowman et al., supra, 1998; WO 98/45427, supra). The KIRA assay was used to compare in vitro bioactivity of BP1-16, BP1-02, BP1-25, and BP1-40. […] IGF-1 and peptide were mixed and added to cells expressing IGF receptor for 30 min, then IGFBP-1 was added for an additional 1 h.

## CC(C)C[C@@H]1NC(=O)[C@H](Cc2ccc(O)cc2)NC(=O)[C@H](Cc2c[nH]c3ccccc23)NC(=O)[C@H](CCC(=O)O)NC(=O)[C@H](C)NC(=O)[C@H](C(C)C)NC(=O)[C@@H]2CCCN2C(=O)[C@H](Cc2c[nH]c3ccccc23)NC(=O)[C@@H](NC(=O)[C@@H](NC(=O)[C@H](CCC(=O)O)NC(=O)[C@H](CCC(=O)O)NC(=O)[C@@H](N)CO)C(C)C)CSSC[C@@H](C(=O)N[C@@H](CC(N)=O)C(=O)O)NC1=O [BP3-15] (H-SEEVCWPVAEWYLCN-OH; disulfide 5-14; N-terminus and C-terminus assumed)
IGFBP-3 [1]
  IC50 (mut) / IC50 (wt): 0.36
IGFBP-3 [2]
  125I-IGF-1 binding to the 44-KD IGFBPs: did not decrease
  decrease in 125I-IGF-1 associated with the 150-KD IGF/IGFBP-3/ALS complex: ~42%
  increase in the amount of free 125I-IGF-1: 59%
[3]
  matrix synthesis, IGF-1 in combination with peptide: to stimulate matrix synthesis; also recorded: enhance anabolism
[4]
  matrix breakdown, IGF-1 in combination with peptide: appeared to enhance the ability of IGF-1 to decrease matrix breakdown

## R50A: IGF-1 single alanine mutant
IGFBP-1 [5]
  relative specificity: 2.3
IGFBP-3 [6]
  IC50: 0.64 ± 0.18 nM
IGFBP-1 [7]
  IC50: 16.2 ± 1.8 nM
IGFBP-1 [8]
  decrease in affinity for IGFBP-1: 3 fold

## CRAGPLQHLCEKYF [BP1-24]
IGFBP-1 [9]
  Fold potency reduction IC50 (mut) / IC50 (BP1-16): < 10

## CRAGPLQWLCEKYF-nh2 (CRAGPLQWLCEKYF-NH2; disulfide 1-10 (inferred)) [BP1-16]
IGFBP-1 [9]
  Fold potency reduction IC50 (mut) / IC50 (BP1-16): -1-
IGFBP-1 [10]
  EC20 (concentration at which 20% of maximal IGF-1 activity is observed): 150 to 200 nM
[3]
  matrix synthesis, IGF-1 in combination with peptide: enhance anabolism
